Reference: EP0334956A1, “HEMOLYSIS INHIBITOR AND MEDICAL RESIN COMPOSITION, MEDICAL IMPLEMENT, AND BLOOD-PRESERVING FLUID CONTAINING THE SAME” (KAO CORPORATION, priority 1986, dated 1988)
Counter-ions that a name gives are not always drawn. Like-named read-outs stand apart in the source and are kept apart here.

What was measured:
[1] = tested on: human concentrated red cells; experiment: Hemolysis of stored CRC, reagent added as Tween 80/physiological saline emulsion; plasma hemoglobin by TMB method; assay type: cell-based; details: for Hemoglobin concentration in plasma: Table 1, emulsion, 4°C, 4 weeks; for hemolysis depressing capacity (in words): summary of Tables 1 through 6 (emulsion and direct addition)
Protocol: Isopropyl isotridecyl maleate was added to a 2000ug/ml polyoxyethylene monooleate (reagent-grade product of Wako Junyaku K.K. marketed under trademark designation of "Tween 80")/physiological saline mixed solution in such an amount to be contained therein in a final concentration of 4mM. A 0.2ml aliquot of the resultant emulsion was added to a human concentrated red cells (hereinafter referred to as "CRC") adjusted in advance to a hematocrit value of about 70% so as to be contained therein in a final concentration indicated in Table 1. The resulting liquid was placed in a stoppered polypropylene tube and left standing at rest at 4°C for 4 weeks. At the end of this standing, it was tested for plasma hemoglobin concentration by the TMB method (Clin. Chem., 23, 749-(1977)).
An emulsion was prepared by following the procedure of Example 1, except that isopropyl decyl maleate was used in place of isopropyl-isotridecyl maleate. A CRC sample incorporating the emulsion was left standing and thereafter tested for plasma hemoglobin concentration.
Emulsions were prepared by following the procedure of Excample 1, except that di-2-ethylhexyl phthalate (Control 1) and diisopropyl maleate, a carboxylic ester compound deviating from the scope of the present invention (Control 2) were respectively used in place of isopropyl isotridecyl maleate. CRC samples severally incorporating the emulsions were left standing and, thereafter, tested for plasma hemoglobin concentration.
Glycerine-l-butyl-3-isostearyl ether was added to a 2000 ug/ml polyoxyethylene monooleate (regent-grade product of Wako Junyaku K.K. marketed under trademark designation of "Tween 80")/ physiological saline mixed solution so as to be contained therein in a final concentration of 4 mM. A 0.2ml aliquot of the resultant emulsion was added to CRC adjusted in advance to a hematocrit value of about 70% so as to be contained therein in a final concentration indicated in Table 3. The resultant liquid was placed in a stoppered polypropylene tube and left standing at 4°C for 4 weeks. Thereafter, it was tested for plasma hemoglobin concentration by following the procedure of Example 1.
An emulsion was prepared by following the procedure of Example 5, except that glycerine-1,3-dioctyl ether was used in place of glycerine- l-butyl-3-isostearyl ether. A CRC sample incorporating the resultant emulsion was left standing and, thereafter, tested for plasma hemoglobin concentration. Controls 7 and 8
Emulsions were prepared by following the procedure of Example 5, except that di-2-ethylhexyl phthalate (Control 7) and glycerine monooctyl ether, an ether compound deviating from the scope of the present invention, (Control 8) were respectively used in place of glycerine-l-butyl-3-isostearyl ether. CRC samples incorporating the emulsions were left standing and, thereafter, tested for plasma hemoglobin concentration.
Isopropyl isolaurate was dispersed in a 2000 ug/ml poloxyethylene monooleate (reagent-grade product of Wako Junyaku K.K. marketed under trademark designation of "Tween 80")/physiological saline mixed solution so as to be contained therein in a concentration of 4 mM. A 0.2-ml aliquot of the resultant emulsion was added to CRC adjusted in advance to a hematocrit value of about 70% so as to be contained therein in a final concentration indicated in Table 5. The resultant liquid was placed in a stoppered polypropylene tube and left standing at 4°C for 4 weeks. Thereafter, it was tested for plasma hemoglobin concentration by following the procedure of Example 1.
An emulsion was prepared by following the procedure of Example 9, except that 2-ethylhexyl isostearate was used in place of isopropyl isolaurate. A CRC sample incorporating the resultant emulsion was left standing and, thereafter, tested for plasma hemoglobin concentration.

CRC = experiment: Hemolysis of stored CRC, reagent added directly to CRC; plasma hemoglobin by TMB method; assay type: cell-based, human; parameters: unit not given here; details: Table 2, direct addition, 4°C, 4 weeks
Protocol: (§1) Isopropyl isotridecyl maleate was added to CRC adjusted in advance to a hematocrit value of about 70% so as to be contained threrein in a final concentration indicated in Table 2 and stirred gently. The resultant liquid was placed in a stoppered polypropylene tube and left standing at rest at 4°C for 4 weeks, while subjecting to gentle stirring per a week. Thereafter, it was tested for plasma hemoglobin concentration by following the procedure of Example 1.
By following the procedrue of Example 3, isopropyl decyl maleate was added to CRC in the place of isopropyl isotridecyl maleate. The resultant liquid was left standing and, thereafter, tested for plasma hemoglobin concentration.
CRC samples were obtained by following the procedure of Example 3, except that di-2-ethylhexyl phthalate (Control 4) and diisopropyl maleate, a carboxylic ester compound deviating from the scope of this invention, (Control 5) were respectively used in place of isopropyl isotridecyl maleate. The resultant liquids were left standing and, thereafter, tested for plasma hemoglobin concentration.
as §1, with “Glycerine-l-butyl-isostearyl ether” for “Isopropyl isotridecyl maleate”, “therein” for “threrein”, “4” for “2”, “standing” for “standing at rest”
A CRC sample was prepared by following the procedure of Example 7, except that glycerine-1,3-dioctyl ether was used in place of glycerine-1-butyl 3-isostearyl ether. The resultant liquid was left standing and, thereafter, tested for plasma hemoglobin concentration.
Emulsions were prepared by following the procedure of Example 7, excepting di-2-ethylhexyl phthalate (Control 10) and glycerine monooctyl ether, an ether compound deviating from the scope of the present invention, (Control 11) were respectively used in the place of glycerine-l-butyl-3-isostearyl ether. CRC samples incorporating the emulsions were left standing and, thereafter, tested for plasma hemoglobin concetnration.
as §1, with “Isopropyl isolaurate” for “Isopropyl isotridecyl maleate”, “contained therein” for “contained threrein”, “Table 4” for “Table 2”, “was place” for “was placed”, “standing” for “standing at rest”, “stirring par” for “stirring per”
An emulsion was prepared by following the procedrue of Example 11, except that 2-ethylhexyl isostearate was used in place of isopropyl isolaurate. A CRC sample incorporating the resultant emulsion was left standing and, thereafter, tested for plasma hemoglobin concentration.
Emulsions were prepared by following the procedure of Example 11, except that di-2-ethylhexyl phthalate (Control 16) and ethyl-2-ethylhexanoate, a monocarboxylic ester compound deviating from the scope of the present invention, (Control 17) were respectively used in place of isopropyl isolaurate. CRC samples incorporating the resultant emulsions therein were left standing and, thereafter, tested for plasma hemoglobin concentraiton.

[2] = tested on: human platelet rich plasma; experiment: Platelet aggregation in platelet rich plasma (Aggrecoder); assay type: cell-based; details: 40 mM methanol solution added in 1/100, room temperature 2 hours, relative to blank; for activity at 400 µM: Homo sapiens, Platelet, 2 h, read-out: Ratio of platelet aggregation; for Ratio of platelet aggregation: 400 µM
Protocol: A 40 mM methanol solution of isopropyl isotridecyl maleate (Example 13), a 40 mM methanol solution of glycerine-l-butyl-3-isostearyl ether (Example 14), a 40 mM methanol solution of isopropyl isolaurate (Example 15), a 40 mM methanol solution of di-2-ethylhexyl phthalate (Control 19) and methanol containing no added compound (Control 20) were severally added to a human platelet rich plasma (count of platelets about 300,000/mm ) in a fixed amount of 1/100, left standing at room temperature for 2 hours, and tested for platelet aggregation by the use of an instrument (product of Kyoto Daiichikagaku K.K. marketed under "Aggrecoder").
The percentage of transmittance of light through the solution of platelet rich plasma containing a given sample to the maximum transmittance of light through the same solution of platelet rich plasma not containing the sample (blank) was reported as the ratio of aggregation of the sample. As aggregation inducers, 5 µM ADP (adenosine diphosphoric acid) and 5 ug/ml collagen were used.

[3] = tested on: concentrated human red cells; experiment: Hemolysis of CRC stored with blood preserving liquid (SAG solution/Tween 80 emulsion); assay type: cell-based; details: 4°C, 5 weeks
Protocol: An emulsion was produced by dissolving Tween 80 (reagent grade produced by Wako Junyaku K.K.) in a SAG solution (containing 140 mM of NaCl, 1.25 mM of adenine and 50 mM of glucose) so as to be contained therein in a concentration of 600 µg/ml adding 12 mM isopropyl isotridecyl maleate to the resultant solution, and stirring the resultant mixture for uniform dispersion. In a stoppered polypropylene tube, a mixture of 1.0 ml of the emulsion prepared as described above and 2.0 ml of a liquid of concentrated human red cells adjusted in advance to a hematocrit value of about 70% was left standing at 4°C for 5 weeks. The resultant liquid was tested for free hemoglobin concentration in plasma by following the procedure of Example 1.
An emulsion was prepared by dissolving Tween 80 (reagent grade product of Wako Junyaku K.K.) in a SAG liquid so as to be contained therein in a concentration of 600 µg/ml, adding 12 mM of glycerine-l-butyl-3-isostearyl ether and stirring the resultant mixture for 'uniform dispersion. In a stoppered polypropylene tube, a mixture of 1.0 ml of the emulsion prepared as described above and 2.0 ml of CRC adjusted in advance to a hematocrit value of about 70% was left stnading at 4°C for 5 weeks. At the end of this standing, the CRC liqud was tested for change of free hemoglobin concentration in plasma by following the procedure of Example 1.
An emulsion was prepared by dissolving Tween 80 (reagent grade product of Wako Junyaku K.K.) in a SAG liquid so as to be contained therein in a concentration of 600 ug/ml, adding 12 mM of isopropyl isolaurate to the resultant solution, and stirring the resultant mixture for uniform dispersion. In a stoppered polypropylene tube, a mixture of 1.0 ml of the emulsion prepared as described above and 2.0 ml of CRC adjusted in advance to a hematocrit value of about 70% and then left standing at 4°C for 5 weeks. At the end of the satnding, the liquid was tested for free hemoglobin concentraiton in plasma by following the procedure of Example 1. The results are shown in Talbe 24.

[4] = aggregation inducer 5 µg/ml collagen

Compound | Hemoglobin concentration in plasma ([1]; final concentration 0.4 mM) [Mg/ml] | Hemoglobin concentration in plasma ([1]; final concentration 4.0 mM) [Mg/ml] | Hemoglobin concentration in plasma (CRC; final concentration 0.4 mM) | Hemoglobin concentration in plasma (CRC; final concentration 4.0 mM) | hemolysis depressing capacity (in words) [1] | further results
CCCCCCCCCCOC(=O)/C=C\C(=O)OC(C)C [Isopropyl decyl maleate] | 41 | 43 | 95 | 99 | – | –
CC(C)OC(=O)/C=C\C(=O)OC(C)C [Diisopropyl maleate, reference compound] | 124 | 138 | 135 | 160 | possessed virtually no ability to prevent hemolysis or conversely caused hemolysis | –
CC(C)CCCCCCCCCCOC(=O)/C=C\C(=O)OC(C)C [Isopropyl isotridecyl maleate] | 35 | 33 | 90 | 95 | – | activity at 400 µM ([2]; aggregation inducer 5 µM ADP): 94.3%; activity at 400 µM [2, 4]: 94.5%
CCCCCCCCOCC(O)CO (stereo not shown) [Glycerine monooctyl ether, reference compound] | – | – | – | – | possessed virtually no ability to prevent hemolysis or conversely caused hemolysis | –
CC(C)CCCCCCCCC(=O)OC(C)C [Isopropyl isolaurate] | – | – | – | – | – | Ratio of platelet aggregation ([2]; aggregation inducer 5 µM ADP): 99.3%; Ratio of platelet aggregation [2, 4]: 101.6%; Concentration of Free Hemoglobin in Plasma ([3]; Table 24, final concentration of the additive in CRC 0.4 mM): 86 mg/dL; Concentration of Free Hemoglobin in Plasma ([3]; Table 24, final concentration of the additive in CRC 4.0 mM): 230 mg/dL
CCCCC(CC)C(=O)OCC (stereo not shown) [Ethyl-2-ethylhexanoate, reference compound] | – | – | – | – | possessed virtually no ability to prevent hemolysis or conversely caused hemolysis | –
Glycerine-1-butyl-3-isostearyl ether | – | – | – | – | – | Ratio of platelet aggregation ([2]; aggregation inducer 5 µM ADP): 101.0%; Ratio of platelet aggregation [2, 4]: 103.1%; Concentration of Free Hemoglobin in Plasma ([3]; Table 23, final concentration of the additive in CRC 0.4 mM): 71 mg/dL; Concentration of Free Hemoglobin in Plasma ([3]; Table 23, final concentration of the additive in CRC 4.0 mM): 102 mg/dL
